Results: patent US20210108199A1, “Treatment for aggressive cancers by targeting C9ORF72” (The Trustees of Columbia University in the City of New York, priority 2017, published 2021)

Key:
Assay type in all cases: cell-based
U87 cells [1] = experiment: ptfLC3 fluorescent autophagy marker imaging; details: U87 cells transfected with ptfLC3
Procedure: Cells were plated on coverslips in 60-mm culture dishes, and after 48 hours washed twice with PBS followed by incubation with 4% paraformaldehyde (Sigma™) for 20 minutes. Cells then were washed three times with PBS, incubated with PBS/0.5% Triton™ X-100 for 1½ minutes, washed once with PBS and then blocked with 0.5% bovine serum albumin (Sigma™) in PBS for 30 minutes at room temperature before treatment with 100 μL of the diluted primary antibodies (1:1000) for 1 hour at room temperature. The coverslips were then washed three times with PBS and stained by incubation with 100 μL of diluted (1:100) secondary antibody (1:100). The coverslips were then washed three times with PBS and mounted on coverslips with a mounting media containing DAPI stain (Vectashield™, H-1200). Coverslips were imaged at room temperature (about 22° C.) using 40×, 1.3 NA or 63×, 1.4 NA oil immersion lenses on a confocal microscope (LSM 700; Carl Zeiss™).
To this end, C9 was knocked down in U87 cells and employed a fluorescent autophagy marker ptfLC3 to mark autophagosomes and autophagolysosomes. […] The white arrows show vacuoles and the white box represents a zoom in of the cell area with vacuoles. […] The white box here represents a zoom in of the cell area with vacuoles, nuclei stained with DAPI (blue). FIG. 4B is a WB showing LAMP1 levels after control (siCtrl) and C9 KD (siC9; SEQ ID NO:631).

caspase-3, PARP1 = experiment: Western blot of caspase-3 and PARP1 cleavage; details: U87 cells
Procedure: (§1) For Western blot analysis, cells were lysed with lysis buffer (20 mM sodium phosphate (pH 7.0), 250 mM NaCl, 30 mM sodium pyrophosphate, 0.1% Nonidet™ P-40, 5 mM EDTA, 10 mM NaF, 0.1 mM Na3VO4, and 1 mM PMSF) supplemented with complete protease inhibitors (Roche™) and homogenized by passage through a 28 gauge needle. Protein concentration was measured with a Bio-Rad™ protein assay dye reagent and results were read using a spectrophotometer (BiophotometerPlus™ by Eppendorf™). Protein extracts were resolved by SDS PAGE on gradient (Thermo Fisher™) or 12% gels. Proteins were then electrotransferred at 350 mA for 80 minutes onto a PVDF membrane (Immobilon-P PVDF). Membranes were blocked with PBST with 5% milk and 1% BSA for 30 minutes. Quantitation of blots was performed Image Studio Lite software (LI-COR Biosciences™).
To check known markers of apoptosis, including caspase-3 cleavage and PARP1 cleavage, U87 cells were treated with doxorubicin as a positive control for apoptotic markers. […] FIG. 17 is a set of WB visualizing the levels of cleaved and un-cleaved caspace-3, and cleaved and un-cleaved PARP1 in cells treated with control (siCtrl) and C9 (siC9; SEQ ID NO:631) siRNA, and U87 cells treated.

U87 cells [2] = experiment: TUNEL assay for DNA breaks; details: vs control
Procedure: Cells were treated with control and C9 siRNA for three days. On day three, cells were collected for TUNEL assay using the FlowTACS kit (TREVIGEN™, 4817-60-K) according to manufacturer's instructions to detect DNA fragmentation. For a positive control, DNA damage was induced using doxorubicin. Data were collected on a FACSCalibur™ flow cytometer (Becton Dickinson™) and data analysis performed on FlowJo™.
ROS can cause oxidative DNA damage. Since elevated ROS levels were observed under C9 KD conditions, it may cause increase in DNA damage. To test this hypothesis, a TUNEL assay was used to measure DNA breaks. […] In addition to C9KD, U87 cells were treated with a known chemotherapeutic DNA damage-inducing drug to serve as a positive control for DNA damage (see FIG. 23). FIG. 23 presents data for the TUNEL assay of U87 cells treated as described for FIG. 21 and for positive DNA-damage control with 0.5 μM doxorubicin (DOX). FIG. 23A presents data for the percentage of cells with DNA fragmentation (shown by DNA damage) comparing control (siCtrl) C9 KD (siC9; SEQ ID NO:631) and DOX-treated cells as measured by FACS analysis. […] FIG. 24 is a set of graphs showing data for cells treated as described for FIG. 23, with the exception of using a different C9 siRNA, indicated as siC9 #2 (SEQ ID NO:633).

p53 = experiment: Western blot of phospho-p53, p53 and p21; details: U87 cells
Procedure: as §1
One of the responses to DNA damage is activation of p53 by ATM. Upon DNA damage, ATM activation leads to p53 phosphorylation, which activates p53 as a transcription factor. Since increased DNA damage was observed upon C9 KD, whether p53 is activated in C9 depleted cells was investigated. First, total p53 levels were measured in U87 cells treated with control and two independent siRNAs against C9. […] Then, the levels of phosphorylated (active) p53 (at s15) was measured. Phosphorylation of s15 on p53 was increased in both C9 siRNA samples.

p53 target genes = experiment: qRT-PCR of p53 target genes; details: U87 cells
Procedure: For most RNA experiments, RNA was isolated from cells using the Qiagen™ RNeasy minikit. Complementary DNA was generated using the Qiagen™ Quantitect™ reverse transcription kit with 0.5 μg of input RNA as measured with a NanoDrop spectrophotometer (Thermo Scientific™). Real-time PCR was carried out on an ABI StepOne Plus™ machine using power SYBR Green dye (Thermo Scientific™). Transcript levels were assayed in triplicate and normalized to RPL32 and HPS90 mRNAs. Relative changes in cDNA levels were calculated using the comparative Ct method (ΔΔCT method). All RT-qPCR primers were designed with Primer3Plus™ or retrieved from Primerbank™. Primer sequences are listed here, including in Table 3. All primers were purchased from Life Technologies™. H. Generation of p53 Knock Out U87 Cell Lines by CRISPR
This also is consistent with p53 activation. FIG. 27 presents RT-qPCR analysis of C9ORF72, CDKN1A (p21), NOXA, PUMA, GLUT1, MDM2 and GLUT3 mRNA levels in U87 cells treated with control (siCtrl) and C9 (siC9; SEQ ID NO:631) siRNA. These studies were performed using three biological replicates (n=3); error bars represent S.E.M. Statistical significance was assessed by an unpaired t-test: NS P>0.05, *P≤0.05, **P≤0.01, ***P≤0.001 ****P≤0.0001.

siC9: siRNA targeting C9 mRNA: UUAAUGAAACAAUAAUCACUC (SEQ ID NO:631; sense) and GUGAUUAUUGUUUCAUUAAUC (SEQ ID NO:632; antisense) (listed as RNA, chemistry not given here)
LC3 staining of vacuoles (U87 cells [1]): not stained by LC3 | fluorescence of autophagolysosomes (U87 cells [1]): increase fluorescence | PARP1 cleavage (caspase-3, PARP1): not observed | PARP1 protein (caspase-3, PARP1): no PARP1 protein observed | caspase 3 cleavage (caspase-3, PARP1): did not lead to caspase 3 cleavage | DNA breaks (TUNEL) (U87 cells [2]): increase in DNA breaks | p21 protein levels (p53): increased p21 protein levels | phosphorylation of s15 on p53 (p53): increased | total p53 levels (p53): elevates p53 levels | mRNA levels of p53 target genes (p21, MDM2, NOXA, PUMA) (p53 target genes): elevated | mRNA levels of repression targets (GLUT1 and GLUT3) (p53 target genes): lower mRNA levels
